# According to patent publication US9321721B2, “Kinase inhibitors” (Allergan, Inc., priority 2013, dated 2016):
# Entries after “also recorded” stand apart in the source; their conditions may differ.
# Molecular target: VEGFR2 (purified cytoplasmic domain KDR protein) (Homo sapiens (Human), UniProt P35968)
# Test: VEGFR2 Kinase Assay (biochemical KDR kinase assay, ELISA readout)
# Conditions: for IC50: 2.7 μM ATP, poly-Glu-Tyr (4:1) substrate, 15 minute incubation at 30° C.; for VEGFR2 potency as shown in this assay (in words): qualitative ranking based on the Table 2 data
# Procedure: VEGFR2 kinase potency of select analogs was determined by the following assay:
# Biochemical KDR kinase assays were performed in 96 well microtiter plates that were coated overnight with 75 μg/well of poly-Glu-Tyr (4:1) in 10 mM Phosphate Buffered Saline (PBS), pH 7.4. The coated plates were washed with 2 mls per well PBS+0.05% Tween-20 (PBS-T), blocked by incubation with PBS containing 1% BSA, then washed with 2 mls per well PBS-T prior to starting the reaction. Reactions were carried out in 100 μL reaction volumes containing 2.7 μM ATP in kinase buffer (50 mM Hepes buffer pH 7.4, 20 mM MgCl2, 0.1 mM MnCl2 and 0.2 mM Na3VO4). Test compounds were reconstituted in 100% DMSO and added to the reaction to give a final DMSO concentration of 5%. Reactions were initiated by the addition 20 ul per well of kinase buffer containing 200-300 ng purified cytoplasmic domain KDR protein (BPS Bioscience, San Diego, Calif.). Following a 15 minute incubation at 30° C., the reactions were washed 2 mls per well PBS-T. 100 μl of a monoclonal anti-phosphotyrosine antibody-peroxidase conjugate diluted 1:10,000 in PBS-T was added to the wells for 30 minutes. Following a 2 mls per well wash with PBS-Tween-20, 100 μl of O-Phenylenediamine Dihydrochloride in phosphate-citrate buffer, containing urea hydrogen peroxide, was added to the wells for 7-10 minutes as a colorimetric substrate for the peroxidase. The reaction was terminated by the addition of 100 μl of 2.5N H2SO4 to each well and read using a microplate ELISA reader set at 492 nm. IC50 values for compound inhibition were calculated directly from graphs of optical density (arbitrary units) versus compound concentration following subtraction of blank values.
# Sequence of VEGFR2 (purified cytoplasmic domain KDR protein) (P35968 786-1356): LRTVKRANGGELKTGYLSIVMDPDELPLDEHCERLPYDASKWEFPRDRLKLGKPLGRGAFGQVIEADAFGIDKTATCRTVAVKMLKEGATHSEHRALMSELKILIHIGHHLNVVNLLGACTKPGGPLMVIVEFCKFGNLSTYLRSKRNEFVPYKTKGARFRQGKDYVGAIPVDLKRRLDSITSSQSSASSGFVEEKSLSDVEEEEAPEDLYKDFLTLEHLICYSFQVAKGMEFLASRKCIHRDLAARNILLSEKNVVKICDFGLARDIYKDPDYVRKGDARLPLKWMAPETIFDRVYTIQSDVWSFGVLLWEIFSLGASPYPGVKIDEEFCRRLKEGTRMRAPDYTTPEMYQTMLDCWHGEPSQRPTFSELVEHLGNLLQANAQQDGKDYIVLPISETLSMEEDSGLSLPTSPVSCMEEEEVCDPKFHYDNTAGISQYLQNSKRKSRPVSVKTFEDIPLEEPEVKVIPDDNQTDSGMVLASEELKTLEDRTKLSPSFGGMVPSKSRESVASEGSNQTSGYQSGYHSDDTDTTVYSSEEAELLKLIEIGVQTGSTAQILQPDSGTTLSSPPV
SMILES,IC50 [nM],VEGFR2 potency as shown in this assay (in words)
"COc1ccc(/C(=C/C(N)=O)c2ccc(NC(=O)Nc3cc(C(F)(F)F)ccc3F)cc2)cc1 [Example 3, (2E)-3-{4-[({[2-fluoro-5-(trifluoromethyl)phenyl]amino}carbonyl)amino]phenyl}-3-(4-methoxyphenyl)acrylamide]",457,excellent VEGFR2 potency; also recorded: best VEGFR2 potency
"NC(=O)/C=C(/c1ccccc1)c1cccc(NC(=O)Nc2cc(C(F)(F)F)ccc2F)c1 [Example 4, (2Z)-3-{3-[({[2-fluoro-5-(trifluoromethyl)phenyl]amino}carbonyl)amino]phenyl}-3-phenylacrylamide]",> 10000,
"NC(=O)/C=C\c1ccc(NC(=O)Nc2cc(C(F)(F)F)ccc2F)cc1 [Example 7, (2Z)-3-{4-[({[2-fluoro-5-(trifluoromethyl)phenyl]amino}carbonyl)amino]phenyl}acrylamide]",2790,excellent VEGFR2 potency
"NC(=O)/C=C/c1ccc(NC(=O)Nc2cc(C(F)(F)F)ccc2F)cc1 [Example 6, (2E)-3-{4-[({[2-fluoro-5-(trifluoromethyl)phenyl]amino}carbonyl)amino]phenyl}acrylamide]",> 10000,
"NC(=O)/C=C/c1cccc(NC(=O)Nc2cc(C(F)(F)F)ccc2F)c1 [Example 5, (2E)-3-{3-[({[2-fluoro-5-(trifluoromethyl)phenyl]amino}carbonyl)amino]phenyl}acrylamide]",> 10000,

# Other lines, results leading:
IC50 [nM],VEGFR2 potency as shown in this assay (in words),SMILES
945,excellent VEGFR2 potency,"COc1cccc(/C(=C/C(N)=O)c2ccc(NC(=O)Nc3cc(C(F)(F)F)ccc3F)cc2)c1 [Example 2, (2E)-3-{4-[({[2-fluoro-5-(trifluoromethyl)phenyl]amino}carbonyl)amino]phenyl}-3-(3-methoxyphenyl)acrylamide]"
626,excellent VEGFR2 potency,"NC(=O)/C=C(/c1ccccc1)c1ccc(NC(=O)Nc2cc(C(F)(F)F)ccc2F)cc1 [Example 1, (2Z)-3-{4-[({[2-fluoro-5-(trifluoromethyl)phenyl]amino}carbonyl)amino]phenyl}-3-phenylacrylamide]"
